ChEMBL document CHEMBL4321867, “Optimization of LpxC Inhibitor Lead Compounds Focusing on Efficacy and Formulation for High Dose Intravenous Administration” (J Med Chem, 2020)
Values after ≈ are worked out from the molar mass of the structure shown.

What was measured:
[1] = tested on: T1, UDP-3-O-acyl-N-acetylglucosamine deacetylase (Escherichia coli K-12), P0A725 [C125S]; details: 25 uM
T1 sequence (whole entry): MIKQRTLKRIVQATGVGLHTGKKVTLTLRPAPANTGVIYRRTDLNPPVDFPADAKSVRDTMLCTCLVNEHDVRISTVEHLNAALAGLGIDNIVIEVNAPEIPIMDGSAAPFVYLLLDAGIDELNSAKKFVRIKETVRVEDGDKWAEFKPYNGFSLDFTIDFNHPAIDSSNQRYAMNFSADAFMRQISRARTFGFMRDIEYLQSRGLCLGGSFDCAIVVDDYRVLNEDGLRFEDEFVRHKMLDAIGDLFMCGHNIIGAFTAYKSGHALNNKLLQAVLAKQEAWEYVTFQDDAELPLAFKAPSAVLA

[2] = tested on: T2, UDP-3-O-acyl-N-acetylglucosamine deacetylase (Pseudomonas aeruginosa (strain ATCC 15692 / PAO1 / 1C / PRS 101 / LMG12228)), P47205 [C40S]; details: 25 uM
T2 sequence (whole entry): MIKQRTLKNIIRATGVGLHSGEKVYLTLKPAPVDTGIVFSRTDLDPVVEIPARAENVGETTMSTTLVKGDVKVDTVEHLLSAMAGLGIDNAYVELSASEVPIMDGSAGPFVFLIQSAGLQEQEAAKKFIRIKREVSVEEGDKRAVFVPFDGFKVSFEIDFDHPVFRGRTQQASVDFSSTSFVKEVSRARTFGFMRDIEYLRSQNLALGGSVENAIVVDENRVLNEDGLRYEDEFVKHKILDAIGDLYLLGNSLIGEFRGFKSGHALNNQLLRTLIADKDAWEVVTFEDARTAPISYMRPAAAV

[3] = in vivo; details: mouse, sc, 150 mg/kg
[4] = in vivo; details: Wistar, rat, iv, 10 mg/kg
[5] = physchem; details: n-octanol/phosphate buffer, pH 7.4
[6] = physchem
[7] = physchem; details: buffer, pH 4
[8] = physchem; details: buffer, pH 7
[9] = physchem; details: buffer, pH 9
[10] = in vitro; details: rat, hepatocytes
[11] = in vitro; details: rat, liver microsomes
[12] = in vitro; details: human, hepatocytes
[13] = in vitro; details: human, liver microsomes
[14] = in vitro; details: rat, plasma
[15] = physchem; details: 5% mannitol/water, pH 4.5
[16] = tested on: Escherichia coli; experiment: microbe, parasite or virus in culture; details: ATCC 25922
[17] = tested on: Klebsiella pneumoniae; experiment: microbe, parasite or virus in culture; details: T6474
[18] = tested on: Pseudomonas aeruginosa; experiment: microbe, parasite or virus in culture; details: ATCC 27853
[19] = tested on: Citrobacter freundii; experiment: microbe, parasite or virus in culture
[20] = tested on: Klebsiella aerogenes; experiment: microbe, parasite or virus in culture
[21] = tested on: Enterobacter cloacae; experiment: microbe, parasite or virus in culture
[22] = tested on: Escherichia coli; experiment: microbe, parasite or virus in culture
[23] = tested on: Klebsiella oxytoca; experiment: microbe, parasite or virus in culture
[24] = tested on: Klebsiella pneumoniae; experiment: microbe, parasite or virus in culture
[25] = tested on: Morganella morganii; experiment: microbe, parasite or virus in culture
[26] = tested on: Proteus mirabilis; experiment: microbe, parasite or virus in culture
[27] = tested on: Serratia marcescens; experiment: microbe, parasite or virus in culture
[28] = tested on: Acinetobacter baumannii; experiment: microbe, parasite or virus in culture
[29] = tested on: Burkholderia cepacia; experiment: microbe, parasite or virus in culture
[30] = tested on: Haemophilus influenzae; experiment: microbe, parasite or virus in culture
[31] = tested on: Moraxella catarrhalis; experiment: microbe, parasite or virus in culture
[32] = tested on: Pseudomonas aeruginosa; experiment: microbe, parasite or virus in culture
[33] = tested on: Stenotrophomonas maltophilia; experiment: microbe, parasite or virus in culture
[34] = in vivo; details: mouse, sc, 50 mg/kg

SMILES | clearance at 24 h [4] | hepatocyte CLint at 1 µM [10] | microsomal CLint at 1 µM [11] | hepatocyte CLint at 1 µM [12] | microsomal CLint at 1 µM [13] | fraction unbound at 1 µM [14] | MIC90 [19] | MIC90 [20] | MIC90 [22] | MIC90 [23] | MIC90 [24] | MIC90 [25] | MIC90 [26] | MIC90 [27] | MIC90 [28] | MIC90 [29] | MIC90 [30] | MIC90 [31] | MIC90 [32] | MIC90 [33] | other results
CN1CC(C#CC#Cc2cc3n(c2)C(=O)N(CC[C@](C)(C(=O)NO)S(C)(=O)=O)C3)C1 | 18 mL/min/kg | 8.6 µL/min/1e6 cells | 665 µL/min/mg | < 2 µL/min/1e6 cells | 48 µL/min/mg | 0.19 | 1 µg/mL (≈ 2.31 µM) | 1 µg/mL (≈ 2.31 µM) | 1 µg/mL (≈ 2.31 µM) | 4 µg/mL (≈ 9.25 µM) | 4 µg/mL (≈ 9.25 µM) | 0.5 µg/mL (≈ 1.16 µM) | 1 µg/mL (≈ 2.31 µM) | 0.5 µg/mL (≈ 1.16 µM) | > 16 µg/mL | 16 µg/mL (≈ 37 µM) | ≤ 0.03 µg/mL | > 16 µg/mL | 2 µg/mL (≈ 4.62 µM) | > 16 µg/mL | deltaTm [1]: 8.9 K; deltaTm [2]: 9.9 K; AUC(0-t) at 24 h [3]: 52900 ng·h/mL; logD [5]: 0.3; pKa [6]: 8.4; solubility at 24 h [7]: > 730 µg/mL; solubility at 24 h [8]: > 730 µg/mL; solubility at 24 h [9]: > 730 µg/mL; solubility [15]: 30000 µg/mL (≈ 69400 µM); MIC [16]: 0.5 µg/mL (≈ 1.16 µM); MIC [17]: 0.5 µg/mL (≈ 1.16 µM); MIC [18]: 0.5 µg/mL (≈ 1.16 µM); MIC90 [21]: 4 µg/mL (≈ 9.25 µM)
O=C(O)c1cn(C2CC2)c2cc(N3CCNCC3)c(F)cc2c1=O [CIPROFLOXACIN] |  |  |  |  |  |  | 0.125 µg/mL (≈ 0.377 µM) | 0.03 µg/mL (≈ 0.0905 µM) | > 8 µg/mL | ≤ 0.016 µg/mL | > 8 µg/mL | ≤ 0.016 µg/mL | 0.125 µg/mL (≈ 0.377 µM) | 0.25 µg/mL (≈ 0.754 µM) | > 8 µg/mL | 8 µg/mL (≈ 24.1 µM) | ≤ 0.016 µg/mL | 1 µg/mL (≈ 3.02 µM) | > 8 µg/mL | 8 µg/mL (≈ 24.1 µM) | 
C[C@@H](O)[C@H]1C(=O)N2C(C(=O)O)=C(SCCNC=N)C[C@H]12 [IMIPENEM ANHYDROUS] |  |  |  |  |  |  | 1 µg/mL (≈ 3.34 µM) | 2 µg/mL (≈ 6.68 µM) | 0.25 µg/mL (≈ 0.835 µM) | 0.5 µg/mL (≈ 1.67 µM) | > 16 µg/mL | 16 µg/mL (≈ 53.4 µM) | 4 µg/mL (≈ 13.4 µM) | 1 µg/mL (≈ 3.34 µM) | > 16 µg/mL | > 16 µg/mL | 0.5 µg/mL (≈ 1.67 µM) | 0.06 µg/mL (≈ 0.2 µM) | > 16 µg/mL | > 16 µg/mL | MIC90 [21]: 1 µg/mL (≈ 3.34 µM)
CN(C)c1cc(NC(=O)CNC(C)(C)C)c(O)c2c1C[C@H]1C[C@H]3[C@H](N(C)C)C(O)=C(C(N)=O)C(=O)[C@@]3(O)C(O)=C1C2=O [TIGECYCLINE] |  |  |  |  |  |  | 1 µg/mL (≈ 1.71 µM) | 1 µg/mL (≈ 1.71 µM) | 1 µg/mL (≈ 1.71 µM) | 0.5 µg/mL (≈ 0.854 µM) | 4 µg/mL (≈ 6.83 µM) | 8 µg/mL (≈ 13.7 µM) | 4 µg/mL (≈ 6.83 µM) | 2 µg/mL (≈ 3.41 µM) | 16 µg/mL (≈ 27.3 µM) | > 16 µg/mL | 0.25 µg/mL (≈ 0.427 µM) | 0.5 µg/mL (≈ 0.854 µM) | > 16 µg/mL | 4 µg/mL (≈ 6.83 µM) | MIC90 [21]: 4 µg/mL (≈ 6.83 µM)
C[C@@](CCN1Cc2cc(C#CC#C[C@H]3C[C@@H]3CO)cn2C1=O)(C(=O)NO)S(C)(=O)=O | 17 mL/min/kg | 19 µL/min/1e6 cells | < 10 µL/min/mg | 3.2 µL/min/1e6 cells | < 10 µL/min/mg | 0.008 |  |  |  |  |  |  |  |  |  |  |  |  |  |  | AUC(0-t) at 24 h [34]: 124000 ng·h/mL; solubility at 24 h [7]: 600 µg/mL (≈ 1380 µM); solubility at 24 h [8]: 588 µg/mL (≈ 1360 µM); solubility at 24 h [9]: 628 µg/mL (≈ 1450 µM); MIC [16]: 0.12 µg/mL (≈ 0.277 µM); MIC [17]: 0.25 µg/mL (≈ 0.577 µM); MIC [18]: 0.25 µg/mL (≈ 0.577 µM)
C[C@@](CCN1Cc2cc(C#CC#CC3(N)CC3)cn2C1=O)(C(=O)NO)S(C)(=O)=O | 29 mL/min/kg | 17 µL/min/1e6 cells | 14 µL/min/mg | < 2 µL/min/1e6 cells | < 10 µL/min/mg | 0.111 |  |  |  |  |  |  |  |  |  |  |  |  |  |  | deltaTm [1]: 10 K; deltaTm [2]: 11.6 K; AUC(0-t) at 24 h [3]: 44700 ng·h/mL; logD [5]: 0.7; pKa [6]: 6.5; MIC [16]: 0.25 µg/mL (≈ 0.597 µM); MIC [17]: 0.25 µg/mL (≈ 0.597 µM); MIC [18]: 0.5 µg/mL (≈ 1.19 µM)
C[C@@](CCN1Cc2cc(C#CC#CC3CN(CCF)C3)cn2C1=O)(C(=O)NO)S(C)(=O)=O | 38 mL/min/kg | 15.4 µL/min/1e6 cells | > 1250 µL/min/mg | < 2 µL/min/1e6 cells | < 10 µL/min/mg | 0.067 | 0.5 µg/mL (≈ 1.08 µM) | 1 µg/mL (≈ 2.15 µM) | 0.25 µg/mL (≈ 0.538 µM) | 0.125 µg/mL (≈ 0.269 µM) | 2 µg/mL (≈ 4.31 µM) | 0.25 µg/mL (≈ 0.538 µM) | 0.5 µg/mL (≈ 1.08 µM) | 0.25 µg/mL (≈ 0.538 µM) | > 16 µg/mL | 4 µg/mL (≈ 8.61 µM) | ≤ 0.03 µg/mL | > 16 µg/mL | 1 µg/mL (≈ 2.15 µM) | > 16 µg/mL | deltaTm [1]: 10.6 K; deltaTm [2]: 12.9 K; AUC(0-t) at 24 h [3]: 49100 ng·h/mL; logD [5]: 1; pKa [6]: 6.7; solubility at 24 h [7]: > 780 µg/mL; solubility at 24 h [8]: 247 µg/mL (≈ 532 µM); solubility at 24 h [9]: > 780 µg/mL; solubility [15]: 25000 µg/mL (≈ 53800 µM); MIC [16]: 0.06 µg/mL (≈ 0.129 µM); MIC [17]: 0.25 µg/mL (≈ 0.538 µM); MIC [18]: 0.5 µg/mL (≈ 1.08 µM); MIC90 [21]: 1 µg/mL (≈ 2.15 µM)
